Measurements: ChEMBL document CHEMBL1149880, “Xanthones from Gentianella amarella ssp. acuta with acetylcholinesterase and monoamine oxidase inhibitory activities” (J Nat Prod, 2008)

How the values were obtained:
[1] = biological target: T1, Amine oxidase [flavin-containing] B (Homo sapiens, UniProt P27338); experiment: Inhibition of monoamine oxidase B at 10 uM; conditions: read-out: INH
T1 sequence (P27338 whole entry): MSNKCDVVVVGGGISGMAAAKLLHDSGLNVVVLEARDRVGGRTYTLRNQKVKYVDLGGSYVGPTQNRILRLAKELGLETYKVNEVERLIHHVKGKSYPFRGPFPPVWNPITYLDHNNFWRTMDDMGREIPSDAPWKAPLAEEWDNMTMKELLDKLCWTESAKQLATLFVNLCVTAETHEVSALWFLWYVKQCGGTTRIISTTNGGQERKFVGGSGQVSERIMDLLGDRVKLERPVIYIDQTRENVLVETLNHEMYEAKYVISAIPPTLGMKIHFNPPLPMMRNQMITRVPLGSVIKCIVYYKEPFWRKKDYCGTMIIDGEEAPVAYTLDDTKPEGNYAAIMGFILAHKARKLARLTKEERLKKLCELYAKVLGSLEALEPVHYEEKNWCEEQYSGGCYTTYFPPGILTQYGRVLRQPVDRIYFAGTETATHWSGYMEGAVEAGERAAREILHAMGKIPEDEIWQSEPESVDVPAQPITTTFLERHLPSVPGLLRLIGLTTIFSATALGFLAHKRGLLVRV

[2] = biological target: T2, Amine oxidase [flavin-containing] A (Homo sapiens, UniProt P21397); experiment: Inhibition of monoamine oxidase A at 10 uM; conditions: read-out: INH
T2 sequence (P21397 whole entry): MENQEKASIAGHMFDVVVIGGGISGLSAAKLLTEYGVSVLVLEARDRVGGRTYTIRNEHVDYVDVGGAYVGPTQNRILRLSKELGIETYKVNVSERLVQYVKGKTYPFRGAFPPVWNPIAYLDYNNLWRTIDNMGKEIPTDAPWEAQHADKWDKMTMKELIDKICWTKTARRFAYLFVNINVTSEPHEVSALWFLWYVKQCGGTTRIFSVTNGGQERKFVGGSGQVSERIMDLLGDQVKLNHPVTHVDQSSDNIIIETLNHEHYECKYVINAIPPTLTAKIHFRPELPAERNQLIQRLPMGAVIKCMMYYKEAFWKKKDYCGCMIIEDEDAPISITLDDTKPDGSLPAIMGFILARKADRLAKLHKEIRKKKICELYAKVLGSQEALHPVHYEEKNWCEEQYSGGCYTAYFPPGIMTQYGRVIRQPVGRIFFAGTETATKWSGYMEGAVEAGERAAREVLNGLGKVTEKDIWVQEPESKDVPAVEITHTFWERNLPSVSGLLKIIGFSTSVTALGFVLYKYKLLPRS

[3] = biological target: Acetylcholinesterase (Homo sapiens) (UniProt P22303); conditions: at 10 µM
Sequence of Acetylcholinesterase (Homo sapiens) (P22303 whole entry): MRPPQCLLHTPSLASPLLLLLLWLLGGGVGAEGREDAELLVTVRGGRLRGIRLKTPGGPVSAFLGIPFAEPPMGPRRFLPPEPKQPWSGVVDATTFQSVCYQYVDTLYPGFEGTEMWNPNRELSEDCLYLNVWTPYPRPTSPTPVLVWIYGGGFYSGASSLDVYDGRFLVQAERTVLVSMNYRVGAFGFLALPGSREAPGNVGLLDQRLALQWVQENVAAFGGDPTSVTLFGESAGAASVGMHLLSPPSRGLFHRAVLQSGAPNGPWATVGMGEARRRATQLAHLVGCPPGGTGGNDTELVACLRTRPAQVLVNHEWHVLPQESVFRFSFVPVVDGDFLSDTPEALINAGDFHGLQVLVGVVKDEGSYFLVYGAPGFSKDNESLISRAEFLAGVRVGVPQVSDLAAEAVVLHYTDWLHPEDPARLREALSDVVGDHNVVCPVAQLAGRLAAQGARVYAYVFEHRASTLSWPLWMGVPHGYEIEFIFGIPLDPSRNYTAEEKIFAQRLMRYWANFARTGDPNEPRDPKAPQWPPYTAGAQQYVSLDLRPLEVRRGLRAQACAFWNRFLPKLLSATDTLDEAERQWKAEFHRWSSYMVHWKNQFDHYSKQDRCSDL
Description: Inhibition of acetylcholinesterase at 10 uM by Ellman's method

Structure (SMILES) | inhibition at 10 µM [1] [%] | inhibition at 10 µM [2] [%] | inhibition [3] [%]
O=c1c2c(O)cc(O)cc2oc2c(O)ccc(O)c12 [DEMETHYLBELLIDIFOLIN] | 59 | 90.5 | 17.5
COc1c(O)ccc2c(=O)c3c(OC4O[C@H](CO)[C@@H](O)[C@H](O)[C@H]4O)cc(O)c(OC)c3oc12 (some centres not stated) | 70.5 | 15 | 1.5
O=c1c2c(O)cc(O)cc2oc2c(O)ccc(O[C@@H]3O[C@H](CO)[C@@H](O)[C@H](O)[C@H]3O)c12 [NORSWERTIANOLIN] | 28.9 | 12.2 | 4.4
COc1cc(O)c2c(=O)c3c(O)ccc(O)c3oc2c1 [BELLIDIFOLIN] | 65.2 | 98.9 | 21.9
COc1cc(O)c2c(=O)c3c(O)c(O[C@@H]4O[C@H](CO)[C@@H](O)[C@H](O)[C@H]4O)ccc3oc2c1OC [TRIPTEXANTHOSIDE C] | 38.8 | 13.4 | 43.7
C#CCN(C)Cc1ccccc1 [PARGYLINE] | 98.2 | 60 | –
COc1cc(O)c2c(=O)c3cc(O[C@@H]4O[C@H](CO)[C@@H](O)[C@H](O)[C@H]4O)ccc3oc2c1OC [VERATRILOSIDE] | 56 | 19.4 | 28.2
COc1cc(O)c2c(=O)c3c(O[C@@H]4O[C@H](CO)[C@@H](O)[C@H](O)[C@H]4O)ccc(O)c3oc2c1 [SWERTIANOLIN] | 93.6 | 43.8 | 9.8
O=c1c2c(O)c(-c3cc(O)c4oc5cc(O)cc(O)c5c(=O)c4c3O)c(O)cc2oc2c(O)ccc(O)c12 | 41.1 | 14.8 | 20.9
COc1ccc(O[C@@H]2O[C@H](CO)[C@@H](O)[C@H](O)[C@H]2O)c2c(=O)c3c(O)c(-c4cc(O)c5oc6cc(O)cc(O)c6c(=O)c5c4O)c(O)cc3oc12 | 39.1 | 21.4 | 12.3
COc1ccc(O)c2c(=O)c3c(O)cc(O[C@@H]4O[C@H](CO)[C@@H](O)[C@H](O)[C@H]4O)c(OC)c3oc12 | 47.8 | 40.2 | 17.6
